{"source": "patent US20120322150A1", "about": "“Mechanism and Method for Regulating Glycogen Synthase Kinase 3 (GSK3)-Related Kinases” (CARNEGIE INSTITUTION OF WASHINGTON, priority 2009, published 2012)", "key": {"BIN2 [1]": {"test_system": "BIN2", "assay": "BIN2-myc / bin2-1-myc protein level in transformed tobacco leaves", "type": "in vivo", "conditions": "1 μM BL for 1 hr", "procedure": "Transformation by Agrobacterium infiltration, observations of subcellular localization and BiFC signal in tobacco or Arabidopsis were performed as described previously 5. Fluorescence of YFP was visualized by using a spinning-disk confocal microscope (Leica Microsystems, Heerbruag, Germany)."}, "BIN2 [2]": {"test_system": "BIN2", "assay": "pTyr200 of BIN2 in plants after BL treatment", "type": "in vivo, Arabidopsis", "conditions": "in the presence of MG132; 0.2 or 0.25 μM BL", "procedure": "(§1) Plant materials were ground with liquid nitrogen and resuspended in IP buffer (50 mM Tris, pH 7.5, 150 mM NaCl, 5% Glycerol, 1% Triton X-100, 1 mM PMSF and 1× protease inhibitor cocktail (Sigma)). Filtered protein extracts were centrifuged at 20,000 g for 10 min and resulting supernatant was incubated with anti-GFP antibody bound Protein A beads or anti-myc agarose beads for 1 hr. Beads were washed 5 times with washing buffer (50 MM Tris, pH 7.5, 150 mM NaCl, 0.2% Triton X-100, 1 mM PMSF and 1× Protease inhibitor cocktail). The beads were resuspended with a small volume of kinase buffer (20 mM Tris, pH 7.5, 1 mM MgCl2, 100 mM NaCl and) mM DTT) and used for in vitro phosphatase assays, or immunoprecipitated proteins were eluted with buffer containing 2% SDS and analyzed by SDS-PAGE and immunoblotting.\nGST-BIN2 or GST-bin2-1 was incubated with MBP-BSU1 or BSU1-YFP beads for 3 Ins and subjected to immunoblotting. pTyr200 residue of BIN2 was detected by anti-phospho-GSK3a/f3 (Tyr279/216) monoclonal antibody, 5G-2F (Millipore, Temecula, Calif.) and re-probed with HRP conjugated anti-GST antibody (Santa Cruz Biotechnology, Santa Cruz, Calif.). The det2 plants were treated with 0.2 μM BL after 1 hr incubation with 10 μM MG 132. AntiBIN2 serum was developed in rabbits using GST-BIN2 as an immunogen. Monoclonal anti-GSK3α/β antibody was purchased from Invitrogen (Carlsbad, Calif.)."}, "BIN2 [3]": {"biological_target": "T1, BIN2 (Arabidopsis thaliana, UniProt Q39011)", "T1 construct": "made in house; host or cells: E. coli", "T1 sequence (Q39011 1-380)": "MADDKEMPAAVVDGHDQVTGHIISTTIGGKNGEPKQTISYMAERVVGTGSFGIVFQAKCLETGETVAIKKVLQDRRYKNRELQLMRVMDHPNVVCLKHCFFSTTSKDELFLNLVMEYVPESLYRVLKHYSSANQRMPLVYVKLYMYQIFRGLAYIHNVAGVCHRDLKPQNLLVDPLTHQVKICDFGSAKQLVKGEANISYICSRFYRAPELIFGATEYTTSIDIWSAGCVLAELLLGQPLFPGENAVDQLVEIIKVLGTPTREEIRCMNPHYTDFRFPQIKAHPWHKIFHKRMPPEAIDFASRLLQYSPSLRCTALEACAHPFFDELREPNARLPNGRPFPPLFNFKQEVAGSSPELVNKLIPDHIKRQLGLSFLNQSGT", "assay": "In vitro BIN2 inhibition assay (BIN2 phosphorylation of BZR1)", "type": "biochemical", "conditions": "BSU1-YFP immunoprecipitated from plants treated with BL versus untreated plants", "procedure": "In vitro BIN2 inhibition assays were performed by 3 hrs co-incubation of MBP-BZR1, GST BIN2, GST BSU1 and ^32P-γATP or pre-incubation of GST-BIN2 with GST-BSU1 for various time followed by adding MBP-BZR1 and 32P-γATP. The examine activities of partial BSU1, N-terminal Kelch (1-363th amino acid) and C-terminal phosphatase (364-793th amino acid) region were used. GST, GST-BSU1, GSTBSU1-Ketch and GST-BSU1-phosphatase were pre-incubated with GST-BIN2 for 1 hr, and further incubated with MBP-BZR1 and ^32P-γATP for 3 hrs.\nTo test activities of BSU1-YFP, anti-GFP antibody-Protein A beads were used to immunoprecipitate BSU1-YFP from extracts of BSU1-YFP transgenic plants, and non-transgenic wild type plants were used as control. The beads were incubated with GST-BIN2 or GST bin2-1 for 1 hr, and then the beads were removed. The BSU1-treated GST-BIN2 or GST-bin2-1 was further incubated with MBP-BZR1 and ^32P-γATP for 3 hrs."}, "AtSK12 [4]": {"test_system": "AtSK12", "assay": "AtSK12 protein accumulation in transgenic plants", "type": "in vivo, Arabidopsis", "set-up": "dose or concentration left out as unconfirmed", "conditions": "AtSK12-myc plants; BRZ medium for 5 days; BL for 30 min", "procedure": "as §1"}, "BIN2 [5]": {"test_system": "BIN2", "assay": "BIN2-myc / bin2-1-myc degradation in transgenic plants", "type": "in vivo, Arabidopsis", "procedure": "as §1"}, "AtSK12 [6]": {"test_system": "AtSK12", "assay": "pTyr dephosphorylation of AtSK12 in plants", "type": "in vivo, Arabidopsis", "conditions": "10 μM MG132 then 0.25 μM BL", "procedure": "as §1"}, "BSU1 and BIN2": {"test_system": "BSU1 and BIN2", "assay": "Co-immunoprecipitation of BSU1-YFP and BIN2-myc after BL treatment", "type": "in vivo, Arabidopsis", "conditions": "plants grown on BRZ, 10 μM MG-132 1 hr, 0.2 μM BL 15 min", "procedure": "as §1"}, "BIN2 [7]": {"test_system": "BIN2", "assay": "Immunoblotting of 2-DE of TAP-BIN2 from BL-treated plants", "type": "in vivo, Arabidopsis", "conditions": "0.25 μM BL, 2 hrs, TAP-BIN2 transgenic plants", "from_the_text": "Total proteins were extracted from BL-treated or untreated 35S::TAP-BIN2 plants for two-dimensional gel electrophoresis (2-DE) as described previously. The amount of BL-treated and untreated TAP-BIN2 proteins was normalized with Western blot. Equal amount of TAP-BIN2 proteins was separated by 2-DE using an immobilized pH gradient gel strip (7 cm, pH 3-10 non-linear) and 7.5% SDS-PAGE gel. The blots were probed with anti-PAP antibody (Sigma, St. Louis, Mo.)."}, "BIN2 [8]": {"biological_target": "T1, BIN2", "assay": "PP1 dephosphorylation of GST-tagged BIN2", "type": "biochemical", "conditions": "PP1 purified from E. coli", "procedure": "(§2) It was next examined whether the mammalian homolog to BSU1, PP1, would dephosphorylate BIN2. A GST-tagged BIN2 was isolated from cells and incubated with PP1 purified from E. coli cells expressing the phosphatase."}, "PP1": {"biological_target": "T2, PP1 (Homo sapiens, UniProt P36873)", "T2 construct": "made in house; host or cells: E. coli", "T2 sequence (P36873 whole entry)": "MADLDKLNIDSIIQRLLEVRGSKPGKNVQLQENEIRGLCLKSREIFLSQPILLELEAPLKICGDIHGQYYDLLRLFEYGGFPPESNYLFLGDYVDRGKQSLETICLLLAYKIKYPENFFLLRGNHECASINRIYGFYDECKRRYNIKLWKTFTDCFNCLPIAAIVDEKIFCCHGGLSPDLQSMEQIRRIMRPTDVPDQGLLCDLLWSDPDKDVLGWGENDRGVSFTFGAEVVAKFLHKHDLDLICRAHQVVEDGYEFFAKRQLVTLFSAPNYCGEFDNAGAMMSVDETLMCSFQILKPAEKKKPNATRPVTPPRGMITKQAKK", "assay": "Inhibition of PP1 activity on BIN2", "type": "biochemical, mammalian", "procedure": "as §2"}}, "note": "Peptide text beside a SMILES is read from it. * marks the point of attachment. Cbz = O=C(OCc1ccccc1)*", "data": [{"compound": "CC(C)[C@H](C)[C@@H](O)[C@H](O)[C@@H](C)[C@H]1CC[C@H]2[C@@H]3COC(=O)[C@H]4C[C@H](O)[C@H](O)C[C@]4(C)[C@H]3CC[C@]12C", "note": "[BL, brassinolide]", "values": [{"measurement": "level of BIN2 and bin2-1 proteins", "setting": "BIN2 [1]", "value": "reduces the level of BIN2 but not bin2-1 proteins"}, {"measurement": "phosphorylation of Tyr200 of wild type BIN2 or BIN2-myc in plants", "setting": "BIN2 [2]", "value": "reduced the phosphorylation of Tyr200"}, {"measurement": "BIN2-inhibiting activity of BSU1-YFP from BL-treated plants", "setting": "BIN2 [3]", "value": "more effective inhibition of BIN2 phosphorylation of BZR1"}, {"measurement": "AtSK12 protein stability", "setting": "AtSK12 [4]", "value": "destabilized"}, {"measurement": "degradation of BIN2 and bin2-1", "setting": "BIN2 [5]; transgenic plants, 0.25 μM BL for 30 min", "value": "induces degradation of BIN2 but not bin2-1"}, {"measurement": "phosphorylation of AtSK12 Tyr233", "setting": "AtSK12 [6]", "value": "greatly reduced phosphorylation of AtSK12 Tyr233"}, {"measurement": "interaction of BSU1 and BIN2", "setting": "BSU1 and BIN2", "value": "BR-induced interaction of BSU1 and BIN2"}, {"measurement": "phosphorylation forms of epitope-tagged BIN2 protein", "setting": "BIN2 [7]", "value": "caused disappearance of the acidic forms and an increase of the basic forms"}]}, {"compound": "CC(C)C[C@@H](C=O)NC(=O)[C@H](CC(C)C)NC(=O)[C@H](CC(C)C)NC(=O)OCc1ccccc1", "note": "[MG132] (Cbz-Leu-Leu-Leu-aldehyde)", "values": [{"measurement": "BR-induced BIN2 depletion", "setting": "BIN2 [5]; proteasome inhibitor, 10 μM", "value": "prevents BR-induced BIN2 depletion"}]}, {"compound": "CC(O)(c1ccccc1)C(Cc1ccc(Cl)cc1)n1cncn1", "note": "(stereo not drawn) [brassinazole]", "values": [{"measurement": "AtSK12 protein stability", "setting": "AtSK12 [4]", "value": "stabilized"}]}, {"compound": "PP1: mammalian homolog to BSU1, protein phosphatase-1, purified from E. coli", "values": [{"measurement": "dephosphorylation of BIN2 tyrosine200", "setting": "BIN2 [8]", "value": "increased dephosphorylation of BIN2 tyrosine200"}]}, {"compound": "manganese chloride", "values": [{"measurement": "enzymatic activity of PP1 on BIN2", "setting": "PP1", "value": "also inhibited the enxymatic activity of PP1 on BIN2"}]}]}
